Columns and labels:
[1] = system: sciatic nerve axonal mitochondria; assay: In vivo imaging of axonal mitochondrial transport in sciatic nerve; design: species or system mouse
Experimental: Together, these experiments indicate that HDAC6 activity impacts axonal mitochondrial transport in vitro and in vivo.
Sciatic nerves were exposed in live, isofluorane-anaesthetized animals (female C57BL6/J mice aged 41-42 d after birth) as previously reported (Gibbs et al., 2016; Sleigh and Schiavo, 2016). Briefly, 10-μ1 glass micropipettes (Drummond Scientific; 5-000-1001-X10) were pulled (Mohan et al., 2015) and used to inject 2 μl of 1.5 mM TubA or DMSO (Sigma-Aldrich; D2650) vehicle control in sterile saline (0.9% wt/vol) into the proximal aspect of the exposed sciatic nerve. 2 μM tetramethylrhodamine, ethyl ester, perchlorate (Thermo Fisher Scientific; T669), and 0.1% (wt/vol) bromophenol blue (Sigma-Aldrich; B5525) were included in the injected solution to label mitochondria and confirm successful injection beneath the perineurium, respectively.
Body temperature was maintained using a heat pad during surgery and drug incubation. Sciatic nerves were imaged from 20 to 90 min after injection using an inverted LSM 780 laser scanning microscope (Zeiss) Plan-Apochromat 63×/1.4 NA Oil DIC M27 objective within an environmental chamber prewarmed and set to 37° C. An area containing labeled axons was selected and imaged for 444-1,000 s at 100×digital zoom every ˜4 s (1,024×1,024 pixels, 0.5-μs pixel dwell time, 1% laser power). Four animals were imaged per day (two per treatment). Image series were converted into AVI files, and mitochondrial dynamics were assessed using Kinetic Imaging Software. Mitochondria were included in analyses when they could be tracked for at least five consecutive frames. At least 10 mitochondria (mean of 49.1) across at least three axons (mean of 4.38) per animal were tracked, and all analyses were performed blinded to treatment.

adult DRG neurons = assay: Axon growth of DRG neurons on laminin or substrate-bound aggrecan (CSPG); type: cell-based, rat; conditions: 10 μM TubA, 24 h
From the text: (§1) MAG and CSPGs are more often tested as surface-bound substrates than with the bath applications used here. Thus, we tested whether bath application of growth inhibitors would cause growth cone retraction in a manner similar to surface-bound inhibitors. […] RhoA activation is a well-known downstream mediator for the growth-inhibitory effects of both MAG and CSPGs (Fujita and Yamashita, 2014), so we tested whether the RhoA/ROCK pathway contributes to the impact of aggregan on mitochondria distribution in growth cones.
MAG or Aggrecan exposures were performed as bath application or on coated substrates. For bath application, dissociated DRGs were cultured for 48 h and treated with 25 μg/ml of MAG-Fc (R&D Systems; 538-MG), 25 μg/ml Fc control (R&D Systems; 110-HG), or 10 μg/ml of Aggrecan (Sigma-Aldrich; A1960) for 4 h. Cultures were pretreated with either Ca^2+ chelator BAPTA-AM (3 μM; Sigma-Aldrich; A1076), ROCK inhibitor Y27632 (10 μM; Sigma-Aldrich; SCM075), HDAC6 inhibitor TubA (10 μM; R&D Systems; 6270), Thapsigargin (1 μM; Sigma-Aldrich; T9033), Rho Activator II (1 μg/ml; Cytoskeleton; CNO3), or equivalent volume DMSO 30 min before MAG-Fc, Aggrecan, or controls. […]
NF-stained cultures were used for neurite growth analyses. […] The growth cone area was measured using ImageJ software from these annotated DIC images. […]

[2] = system: growth cones of DRG neurons; assay: Growth cone retraction after bath-applied growth inhibitors; type: cell-based, rat; conditions: 10 μM TubA
From the text: as §1
MAG or Aggrecan exposures were performed as bath application or on coated substrates. For bath application, dissociated DRGs were cultured for 48 h and treated with 25 μg/ml of MAG-Fc (R&D Systems; 538-MG), 25 μg/ml Fc control (R&D Systems; 110-HG), or 10 μg/ml of Aggrecan (Sigma-Aldrich; A1960) for 4 h. Cultures were pretreated with either Ca^2+ chelator BAPTA-AM (3 μM; Sigma-Aldrich; A1076), ROCK inhibitor Y27632 (10 μM; Sigma-Aldrich; SCM075), HDAC6 inhibitor TubA (10 μM; R&D Systems; 6270), Thapsigargin (1 μM; Sigma-Aldrich; T9033), Rho Activator II (1 μg/ml; Cytoskeleton; CNO3), or equivalent volume DMSO 30 min before MAG-Fc, Aggrecan, or controls. For substrate-bound experiments, adult DRGs were cultured on glass bottom dishes (Greiner) that were coated with 25 μg/ml Aggrecan in addition to the laminin/poly-D-lysine substrate.

[3] = system: rat embryonic cortical neurons; conditions: 10 μM; cited from earlier work

In the case of `CN1CCc2c(c3ccccc3n2Cc2ccc(C(=O)NO)cc2)C1` [TubA, tubastatin], the “pausing of moving mitochondria” value ([1]; retrogradely versus anterogradely moving, after TubA) is reported as “significantly increased pausing for retrogradely versus anterogradely moving mitochondria”, the “ratio of anterogradely to retrogradely moving axonal mitochondria” value ([1]; sciatic nerve injection, 2 μl of 1.5 mM, in vivo imaging) is reported as “increased” and the “significance of antero/retrograde ratio and speed of movement vs vehicle control” value ([1]; sciatic nerve injection, in vivo imaging) is reported as “neither this nor the speed of movement showed significant differences”. The “effect on attenuation of axon growth by substrate-bound aggrecan” value (adult DRG neurons) was “prevented by TubA exposure”, the “effect on aggrecan-induced growth cone retraction” value [2] was “prevented by application of TubA” and the histone acetylation [3] was “no effect on histone acetylation”. For the same compound, the “levels of acetyl (Ac) α-tubulin” value [3] was “increases levels of acetyl (Ac) α-tubulin”.
